# Test system: S aureus A798
# Assay: Minimal inhibitory concentration (MIC), microdilution method in cation-adjusted Mueller-Hinton Broth following NCCLS guidelines
# Format: cell-based
# Settings: pH of test medium 7.2-7.3
# Experimental: These assays have been performed following the description given in “Methods for dilution Antimicrobial Susceptibility Tests for Bacteria that Grow Aerobically, 4th ed.; Approved standard: NCCLS Document M7-A4; National Committee for Clinical Laboratory Standards Villanova, Pa., USA, 1997”. Minimal inhibitory concentrations (MICs; mg/l) were determined in cation-adjusted Mueller-Hinton Broth by a microdilution method following NCCLS guidelines (National Committee for Clinical Laboratory Standards. Methods for Dilution Antimicrobial Susceptibility). The pH of the test medium was 7.2-7.3. All Example compounds were tested against several Gram positive and Gram negative bacteria.
MIC [µg/mL],MIC S aureus A798,Compound
0.125,,"COc1ccc2nccc(N3C[C@H]4CCN(C(=O)[C@@H]5CN(c6ccc7c(c6)OCCO7)C(=O)O5)[C@H]4C3)c2n1 (mixture of isomers) [Example 95, (S)-3-(2,3-Dihydro-benzo[1,4]dioxin-6-yl)-5-[(3aR*,6aR*)-5-(6-methoxy-[1,5]naphthyridin-4-yl)-hexahydro-pyrrolo[3,4-b]pyrrole-1-carbonyl]-oxazolidin-2-one]"
≤ 0.031,,"COc1ccc2ncc(F)c(N3CC[C@H](NC[C@@H]4CN(c5ccc6c(c5)NC(=O)CS6)C(=O)O4)C3)c2n1 [Example 65, 6-((R)-5-{[(S)-1-(3-Fluoro-6-methoxy-[1,5]naphthyridin-4-yl)-pyrrolidin-3-ylamino]-methyl}-2-oxo-oxazolidin-3-yl)-4H-benzo[1,4]thiazin-3-one]"
≤ 0.031,,"COc1ccc2nccc(N3CCC(NC[C@@H]4CN(c5ccc6c(c5)NC(=O)CS6)C(=O)O4)CC3)c2n1 [Example 119, 6-((R)-5-{[1-(6-Methoxy-[1,5]naphthyridin-4-yl)-piperidin-4-ylamino]-methyl}-2-oxo-oxazolidin-3-yl)-4H-benzo[1,4]thiazin-3-one]"
0.25,,"COc1ccc2nccc(N3CCN(C[C@@H]4CN(c5cccc(C#N)c5)C(=O)O4)CC3)c2n1 [Example 21, 3-{(R)-5-[4-(6-Methoxy-[1,5]naphthyridin-4-yl)-piperazin-1-ylmethyl]-2-oxo-oxazolidin-3-yl}-benzonitrile]"
≤ 0.031,,"COc1ccc2nccc(N3CCN(C[C@@H]4CN(c5ccc(Br)c(F)c5)C(=O)O4)CC3)c2n1 [Example 13, (R)-3-(4-Bromo-3-fluoro-phenyl)-5-[4-(6-methoxy-[1,5]naphthyridin-4-yl)-piperazin-1-ylmethyl]-oxazolidin-2-one]"
0.5,,"COc1ccc2nccc(N3CC(C(=O)NC[C@@H]4CN(c5ccc(C)c(F)c5)C(=O)O4)C3)c2n1 [Example 148, 1-(6-Methoxy-[1,5]naphthyridin-4-yl)-azetidine-3-carboxylic acid [(R)-3-(3-fluoro-4-methyl-phenyl)-2-oxo-oxazolidin-5-ylmethyl]-amide]"
≤ 0.031,,"COc1ccc2ncc(F)c(N3CC[C@H](NC[C@H]4CN(c5ccc6c(c5)NC(=O)CS6)C(=O)O4)C3)c2n1 [Example 164, 6-((S)-5-{[(S)-1-(3-Fluoro-6-methoxy-[1,5]naphthyridin-4-yl)-pyrrolidin-3-ylamino]methyl}-2-oxo-oxazolidin-3-yl)-4H-benzo[1,4]thiazin-3-one]"
≤ 0.031,,"COc1ccc2nccc(N3CC[C@@H](NC[C@@H]4CN(c5ccc6c(c5)NC(=O)CS6)C(=O)O4)C3)c2n1 [Example 71, 6-((R)-5-{[(R)-1-(6-Methoxy-[1,5]naphthyridin-4-yl)-pyrrolidin-3-ylamino]-methyl}-2-oxo-oxazolidin-3-yl)-4H-benzo[1,4]thiazin-3-one]"
0.25,,"COc1ccc2nccc(N3C[C@@H](O)[C@H](NC[C@@H]4CN(c5ccc6c(c5)OCCO6)C(=O)O4)C3)c2n1 (relative stereo) [Example 77, (R)-3-(2,3-Dihydro-benzo[1,4]dioxin-6-yl)-5-{[(3R*,4R*)-4-hydroxy-1-(6-methoxy-[1,5]naphthyridin-4-yl)-pyrrolidin-3-ylamino]-methyl}-oxazolidin-2-one]"
≤ 0.031,,"N#Cc1ccc2nccc(N3CC(NC[C@@H]4CN(c5ccc6c(c5)NC(=O)CS6)C(=O)O4)C3)c2c1 [Example 161, 4-(3-{[(R)-2-oxo-3-(3-oxo-3,4-dihydro-2H-benzo[1,4]thiazin-6-yl)-oxazolidin-5-ylmethyl]amino}-azetidin-1-yl)-quinoline-6-carbonitrile]"
≤ 0.031,,"COc1ccc2nccc(N3CC(NC[C@@H]4CN(c5ccc(OC(F)F)cc5)C(=O)O4)C3)c2n1 [Example 176, (R)-3-(4-Difluoromethoxy-phenyl)-5-{[1-(6-methoxy-[1,5]naphthyridin-4-yl)-azetidin-3-ylamino]-methyl}-oxazolidin-2-one]"
0.125,,"O=C1CSc2ccc(N3C[C@@H](CN[C@@H]4CCN(c5ccnc6ccc(F)cc56)C4)OC3=O)cc2N1 [Example 177, 6-((R)-5-{[(R)-1-(6-Fluoro-quinolin-4-yl)-pyrrolidin-3-ylamino]-methyl}-2-oxo-oxazolidin-3-yl)-4H-benzo[1,4]thiazin-3-one]"
0.25,,"COc1ccc2nccc(N3C[C@@H](CNC[C@@H]4CN(c5ccc6c(c5)NC(=O)CS6)C(=O)O4)[C@@H](O)C3)c2n1 (mixture of isomers) [Example 83, 6-[(R)-5-({[(3RS)-(4RS)-4-Hydroxy-1-(6-methoxy-[1,5]naphthyridin-4-yl)-pyrrolidin-3-ylmethyl]-amino}-methyl)-2-oxo-oxazolidin-3-yl]-4H-benzo[1,4]thiazin-3-one]"
,<=0.031 mg/l,"COc1ccc2nccc(N3CC(NC(=O)[C@@H]4CN(c5ccc6c(c5)OCCO6)C(=O)O4)C3)c2n1 [Example 116, (S)-3-(2,3-Dihydro-benzo[1,4]dioxin-6-yl)-2-oxo-oxazolidine-5-carboxylic acid[1-(6-methoxy-[1,5]naphthyridin-4-yl)-azetidin-3-yl]-amide]"
≤ 0.031,,"COc1ccc2nccc(N3C[C@H](NC[C@@H]4CN(c5ccc6c(c5)NC(=O)CS6)C(=O)O4)[C@@H](OC)C3)c2n1 [Example 182, 6-((R)-5-{[(3S,4S)-4-Methoxy-1-(6-methoxy-[1,5]naphthyridin-4-yl)-pyrrolidin-3-ylamino]-methyl}-2-oxo-oxazolidin-3-yl)-4H-benzo[1,4]thiazin-3-one]"
≤ 0.031,,"COc1ccc2nccc(N3CCN(C[C@@H]4CN(c5ccc6c(c5)OCO6)C(=O)O4)CC3)c2n1 [Example 35, (R)-3-Benzo[1,3]dioxol-5-yl-5-[4-(6-methoxy-[1,5]naphthyridin-4-yl)-piperazin-1-ylmethyl]-oxazolidin-2-one]"
0.063,,"COc1ccc2nccc(N3CC(CNC[C@@H]4CN(c5ccc(C)c(F)c5)C(=O)O4)C3)c2n1 [Example 154, (R)-3-(3-Fluoro-4-methyl-phenyl)-5-({[1-(6-methoxy-[1,5]naphthyridin-4-yl)-azetidin-3-ylmethyl]-amino}-methyl)-oxazolidin-2-one]"
4,,"COc1ccc2nccc(N3CCCC(NC[C@@H]4CN(c5ccc6c(c5)OCCO6)C(=O)O4)C3)c2n1 (mixture of isomers) [Example 102, (R)-3-(2,3-Dihydro-benzo[1,4]dioxin-6-yl)-5-{[(RS)-1-(6-methoxy-[1,5]naphthyridin-4-yl)-piperidin-3-ylamino]-methyl}-oxazolidin-2-one]"
1,,"COc1ccc2nccc(N3CCN(C[C@@H]4CN(c5ccc(OC)c(Cl)c5)C(=O)O4)CC3)c2n1 [Example 28, (R)-3-(3-Chloro-4-methoxy-phenyl)-5-[4-(6-methoxy-[1,5]naphthyridin-4-yl)-piperazin-1-ylmethyl]-oxazolidin-2-one]"
0.25,,"COc1ccc2nccc(N3CC[C@@H]4CN(C(=O)[C@@H]5CN(c6ccc7c(c6)OCCO7)C(=O)O5)C[C@@H]43)c2n1 (mixture of isomers) [Example 92, (S)-3-(2,3-Dihydro-benzo[1,4]dioxin-6-yl)-5-[(3aR*,6aR*)-1-(6-methoxy-[1,5]naphthyridin-4-yl)-hexahydro-pyrrolo[3,4-b]pyrrole-5-carbonyl]-oxazolidin-2-one]"
≤ 0.031,,"COc1ccc2ncc(F)c(N3CCN(C[C@@H]4CN(c5ccc6c(c5)NC(=O)CS6)C(=O)O4)CC3)c2n1 [Example 98, 6-{(R)-5-[4-(3-Fluoro-6-methoxy-[1,5]naphthyridin-4-yl)-piperazin-1-ylmethyl]-2-oxo-oxazolidin-3-yl}-4H-benzo[1,4]thiazin-3-one]"
0.125,,"COc1ccc2nccc(N3CCC(CNC(=O)[C@@H]4CN(c5ccc6c(c5)OCCO6)C(=O)O4)C3)c2n1 (mixture of isomers) [Example 81, (S)-3-(2,3-Dihydro-benzo[1,4]dioxin-6-yl)-2-oxo-oxazolidine-5-carboxylic acid [(RS)-1-(6-methoxy-[1,5]naphthyridin-4-yl)-pyrrolidin-3-ylmethyl]-amide]"
2,,"COc1ccc2nccc(N3CCN(C[C@@H]4CN(c5ccc(N6CCCC6)cc5)C(=O)O4)CC3)c2n1 [Example 23, (R)-5-[4-(6-Methoxy-[1,5]naphthyridin-4-yl)-piperazin-1-ylmethyl]-3-(4-pyrrolidin-1-yl-phenyl)-oxazolidin-2-one]"
≤ 0.031,,"COc1ccc2nccc(N3CC(NC[C@@H]4CN(c5ccc6c(c5)NC(=O)CS6)C(=O)O4)C3)c2c1 [Example 49, 6-((R)-5-{[1-(6-Methoxy-quinolin-4-yl)-azetidin-3-ylamino]-methyl}-2-oxo-oxazolidin-3-yl)-4H-benzo[1,4]thiazin-3-one]"
≤ 0.031,,"COc1ccc2nccc(N3CCCN(C[C@@H]4CN(c5ccc6c(c5)NC(=O)CS6)C(=O)O4)CC3)c2n1 [Example 106, 6-{(R)-5-[4-(6-Methoxy-[1,5]naphthyridin-4-yl)-[1,4]diazepan-1-ylmethyl]-2-oxo-oxazolidin-3-yl}-4H-benzo[1,4]thiazin-3-one]"
≤ 0.031,,"COc1ccc2ncc(F)c(N3CC(NC[C@@H]4CN(c5ccc(C)c(F)c5)C(=O)O4)C3)c2n1 [Example 46, (R)-5-{[1-(3-Fluoro-6-methoxy-[1,5]naphthyridin-4-yl)-azetidin-3-ylamino]-methyl}-3-(3-fluoro-4-methyl-phenyl)-oxazolidin-2-one]"
≤ 0.031,,"O=C1CSc2ccc(N3C[C@@H](CNC4CN(c5ccnc6ccc(F)cc56)C4)OC3=O)cc2N1 [Example 160, 6-((R)-5-{[1-(6-Fluoro-quinolin-4-yl)-azetidin-3-ylamino]-methyl}-2-oxo-oxazolidin-3-yl)-4H-benzo[1,4]thiazin-3-one]"

Compound,MIC [µg/mL],MIC S aureus A798
"COc1ccc2nccc(C3(O)CCN(CC4CN(c5ccc6c(c5)OCCO6)C(=O)O4)CC3)c2n1 (racemic) [Example 3, (RS)-3-(2,3-Dihydro-benzo[1,4]dioxin-6-yl)-5-[4-hydroxy-4-(6-methoxy-[1,5]naphthyridin-4-yl)-piperidin-1-ylmethyl]-oxazolidin-2-one]",≤ 0.031,
